The record followed here is patent US8327467B2, “Anthranilic acid derivative or salt thereof” (Toyama Chemical Co., Ltd., priority 2005, dated 2012).

Structures can show the parent of a compound that is named as a salt.

The first assay deals with MMP-13. In words: MMP-13 production inhibition test. It is filed as cell-based. To be noted: 30 μmol/L; human cartilage derived cell line SW1353, IL-1β 10 ng/mL, 16 hours after stimulation, MMP-13 in culture supernatant by ELISA; read-out: Inhibition rate (%) at 30 μmol/L. The procedure:
MMP-13 Production Inhibition Test
6.8×10^3 human cartilage derived cell line SW1353 cells were suspended in 100 μL of Dulbecco modified Eagle's medium supplemented with 10% fetal calf serum, plated on 96-well plates and cultured for 3 days. After the culture medium was changed to Dulbecco modified Eagle's medium containing 0.2% lactalbumin hydrolysate and the cells were cultured for 6 hours, test compounds were added and then IL-1β was added to obtain the final concentration of 10 ng/mL 1 hour later. 16 hours after the stimulation, supernatant was collected and the amount of MMP-13 in the culture supernatant was determined with an ELISA kit (Amersham). The inhibition rate was calculated from the amount of MMP-13 in the presence of a test compound assuming that the amount of MMP-13 was 100% in the absence of the test compound.
Turning to `O=C(O)c1ccc(NC(=O)c2csc3ccccc23)cc1Nc1ccc(F)cc1` [Example 87, 4-(benzothiophene-3-carboxamido)-2-(4-fluoroanilino)benzoic acid], the inhibition at 30 µM turned out to be 97%. In the case of `O=C(O)c1ccc(-c2ccccc2OC(F)(F)F)cc1Nc1ccc(F)cc1` [Example 220, 2-(4-Fluoroanilino)-4-(2-(trifluoromethoxy)phenyl)benzoic acid], the inhibition at 30 µM worked out at 98%. Still for that read-out and setting: as for `O=C(O)c1ccc(-c2cccc3[nH]ccc23)cc1Nc1ccc(F)cc1` [Example 234, 2-(4-fluoroanilino)-4-(1H-indol-4-yl)benzoic acid], the figure is 97%. Consider `O=C(O)c1ccc(N2CCc3ccccc32)cc1Nc1cccc(O)c1` [Example 286, 2-((3-hydroxyphenyl)amino)-4-(indolin-1-yl)benzoic acid], for which the inhibition at 30 µM was 96%. As to `O=C(O)c1ccc(CCc2ccccc2)cc1Nc1ccc(F)cc1` [Example 38, 2-(4-Fluoroanilino)-4-phenethylbenzoic acid], the inhibition at 30 µM is 97%. For `O=C(O)c1ccc(CCc2ccccc2)cc1Nc1cc(-c2ccccc2)n[nH]1` [Example 329, 4-Phenethyl-2-((3-phenyl-1H-pyrazol-5-yl)amino)benzoic acid], the inhibition at 30 µM worked out at 96%. Turning to `O=C(O)c1ccc(-c2cccc(Cl)c2)cc1Nc1cccc(O)c1` [Example 271, 4-(3-chlorophenyl)-2-((3-hydroxyphenyl)amino)benzoic acid], the inhibition at 30 µM was found to be 97%. On the same count and under the same terms, as for `O=C(O)c1ccc(-c2ccccc2)cc1NCC=Cc1ccccc1` [Example 350, 2-(Cinnamylamino)-4-phenylbenzoic acid], the figure is 91%; as for `O=C(O)c1ccc(CCc2ccccc2)cc1Nc1cccc2cnccc12` [Example 360, 2-((Isoquinolin-5-yl)amino)-4-phenethylbenzoic acid trifluoroacetate], 97%; as for `O=C(O)c1ccc(Oc2ccccc2)cc1NCc1ccccc1` [Example 52, 2-(benzylamino)-4-phenoxybenzoic acid], 77%. As to `COc1ccc(Nc2cc(-c3ccccc3)ccc2C(=O)O)cc1` [Example 185, 2-(4-methoxyanilino)-4-phenylbenzoic acid], the inhibition at 30 µM was 79%. On the same count and under the same terms, as for `O=C(O)c1ccc(-c2ccc3occc3c2)cc1Nc1ccc(F)cc1` [Example 225, 4-(Benzofuran-5-yl)-2-(4-fluoroanilino)benzoic acid], the figure is 98%; as for `Cc1ccc(-c2ccc(C(=O)O)c(Nc3ccc(F)cc3)c2)cc1C` [Example 214, 4-(3,4-Dimethylphenyl)-2-(4-fluoroanilino)benzoic acid], 98%; as for `COc1ccc(Nc2cc(Oc3ccccc3)ccc2C(=O)O)c(OC)c1` [Example 45, 2-(2,4-Dimethoxyanilino)-4-phenoxybenzoic acid], 73%. With `O=C(O)c1ccc(NCc2ccccc2)cc1Nc1ccc(F)cc1` [Example 67, 4-(benzylamino)-2-(4-fluoroanilino)benzoic acid], the inhibition at 30 µM was found to be 67%. On the same count and under the same terms, as for `O=C(O)c1ccc(CCc2ccccc2)cc1Nc1cccc(-n2cccn2)c1` [Example 362, 4-Phenethyl-2-(3-(1H-pyrazol-1-yl)phenylamino)benzoic acid], the figure is 97%. The same measure, in the same setting: as for `COc1ccccc1Nc1cc(CCc2ccccc2)ccc1C(=O)O` [Example 181, 2-(2-Methoxyanilino)-4-phenethylbenzoic acid], the figure is 97%.

A further assay has as its system type II collagen-induced arthritis. Nature of the assay: Type II collagen-induced arthritis in mice. To be noted: male DBA/1 J mice, 10 mg/kg orally once a day from the 21st day to the 35th day. It is filed as in vivo. On the procedure:
Type II Collagen-Induced Arthritis in Mice
Eight-week old male DBA/1 J mice were used (Charles River Laboratories Japan Inc.). 4 mg/mL bovine type II collagen (Collagen Gijutsu Kenshukai) dissolved in 0.01 mol/L of acetic acid aqueous solution and an equal amount of Freund's complete adjuvant (Chondorex) containing 1 mg/mL of killed tuberculosis bacillus were added to prepare an emulsion, and 0.1 mL thereof was intradermally injected at the base of tail. Similar treatment was conducted on the 21st day to cause arthritis. The test compound was suspended in 0.5% methylcellulose aqueous solution, and 10 mg/kg was orally administered once a day from the 21st day to the 35th day. In the control group,0.5% methylcellulose aqueous solution was administered in the same manner. The severity of arthritis was estimated by scoring at zero point for an animal without change; one point for an animal with swelling at the one or two finger joint or light swelling only at the carpal or tarsal joint; two points for an animal with severe swelling at the carpal or tarsal joint or with swelling at three or more finger joints; three points for an animal with severe swelling along the whole foreleg or hindleg and thus counting 12 points at the maximum for the four limbs as arthritis score. […] The inhibitory rate was determined by the following expression. […]
For the compound `O=C(O)c1ccc(CCc2ccccc2)cc1Nc1ccc(F)cc1` [Example 38, 2-(4-Fluoroanilino)-4-phenethylbenzoic acid], the “inhibitory action on arthritis (arthritis score)” value is reported as “exhibited inhibitory action” and the “inhibitory action on bone destruction (bone destruction score, X-ray on the 36th day)” value is recorded as “exhibited inhibitory action”.
